Assay [1] has as its system CCF-STTG1 astrocytoma cells (ApoE lipoprotein secretion). Kind of assay: TR-FRET ApoE lipidation assay on media from CCF-STTG1 cells. The following applies: Homo sapiens, media from CCF-STTG cells, 48 hours incubation, europium-conjugated anti-ApoE antibody and DiD, n=3, read-out: EC50 (TR-FRET signal, ApoE lipidation). Format: cell-based. On the procedure: TR-FRET analysis was performed on an Envision plate reader (Perkin Elmer). The donor fluorophore (europium cryptate-conjugated antibody) was excited at 320 nm. A 40 μs delay occurred before measuring emission signals at 620 nm (donor fluorescence) and 665 nm wavelengths (DiD acceptor FRET signal) during a 400 μs window. Sample normalized FRET signal was determined by finding the ratio of the 665 nm emission to 620 nm emission.
(§1) To test whether the TR-FRET assay detects lipidated proteins secreted from cells, the TR-FRET assay was tested on concentrated media from cultures of CCF-STTG1 astrocytoma cells grown in the absence and presence of T0901317, a LXR transcription factor agonist that induces ApoE lipoprotein secretion. Samples of concentrated media were mixed with TR-FRET buffer, europium-conjugated anti-ApoE3 antibody and DiD, incubated at 37° C. for 20 hours, and then fluorescence was measured using an Envision plate reader. As a control, samples were analyzed by native-PAGE gels, a conventional method of detecting lipidated proteins.
(In general: In TR-FRET formats the signal depends on donor and acceptor labels being close together.)

For assay [2] the test system is unchanged. Kind of assay: native-PAGE gel of ApoE lipidation in conditioned media. The format is cell-based. The following applies: CCF-STTG1 cell media following culture with compound. The protocol:
as §1

`O=S(=O)(c1ccccc1)N(CC(F)(F)F)c1ccc(C(O)(C(F)(F)F)C(F)(F)F)cc1` [T0901317]: the EC50 in assay [1] is 0.0502 µM. Further, in assay [2], the “lipidated ApoE in cell media by native-PAGE” value is “dose-dependent accumulation of lipidated ApoE”.

What is called EC50 is the concentration at which the effect is half-maximal.

Values taken from US20240426845A1, “METHOD FOR DETECTING A LIPIDATED PROTEIN VIA FLUORESCENCE RESONANCE ENERGY TRANSFER (FRET)” (Biogen MA Inc., priority 2021, published 2024).
